Laboratory results as given in PubChem BioAssay (NCI).
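Results reflect a 48-hour exposure of cells in 96-well plates to compound at five concentrations. Abbreviation: GI50, concentration required for 50% inhibition of growth. At the TGI there is no net growth.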

How the values were obtained:
Assay in all cases: inhibition of tumour cell growth, NCI panel, 48 h
OVCAR-5 ovarian = tested on: OVCAR-5 ovarian
MALME-3M melanoma = tested on: MALME-3M melanoma
SK-MEL-28 melanoma = tested on: SK-MEL-28 melanoma
U251 CNS = tested on: U251 CNS
MDA-MB-231 breast = tested on: MDA-MB-231 breast
MDA-MB-435 = tested on: MDA-MB-435
TK-10 renal = tested on: TK-10 renal
786-0 renal = tested on: 786-0 renal
SF-539 CNS = tested on: SF-539 CNS
SK-MEL-2 melanoma = tested on: SK-MEL-2 melanoma
RPMI-8226 leukemia = tested on: RPMI-8226 leukemia
IGROV1 ovarian = tested on: IGROV1 ovarian
SNB-75 CNS = tested on: SNB-75 CNS
SK-MEL-5 melanoma = tested on: SK-MEL-5 melanoma
HL-60(TB) leukemia = tested on: HL-60(TB) leukemia
LOX IMVI melanoma = tested on: LOX IMVI melanoma
HCC-2998 colon = tested on: HCC-2998 colon
T-47D breast = tested on: T-47D breast
KM12 colon = tested on: KM12 colon
HOP-62 NSCLC = tested on: HOP-62 NSCLC
OVCAR-4 ovarian = tested on: OVCAR-4 ovarian
MOLT-4 leukemia = tested on: MOLT-4 leukemia
OVCAR-3 ovarian = tested on: OVCAR-3 ovarian
DU-145 prostate = tested on: DU-145 prostate
SNB-19 CNS = tested on: SNB-19 CNS
NCI-H522 lung = tested on: NCI-H522 lung
M14 melanoma = tested on: M14 melanoma
HS 578T breast = tested on: HS 578T breast
BT-549 breast = tested on: BT-549 breast
PC-3 prostate = tested on: PC-3 prostate
A549 NSCLC = tested on: A549 NSCLC
HCT-15 colon = tested on: HCT-15 colon
SK-OV-3 ovarian = tested on: SK-OV-3 ovarian
OVCAR-8 ovarian = tested on: OVCAR-8 ovarian
MCF7 breast = tested on: MCF7 breast
SN12C renal = tested on: SN12C renal
SF-268 CNS = tested on: SF-268 CNS
HCT-116 colon = tested on: HCT-116 colon
NCI-H23 lung = tested on: NCI-H23 lung
SW-620 colon = tested on: SW-620 colon
CAKI-1 renal = tested on: CAKI-1 renal
ACHN renal = tested on: ACHN renal
NCI/ADR-RES ovarian = tested on: NCI/ADR-RES ovarian
CCRF-CEM leukemia = tested on: CCRF-CEM leukemia
SR leukemia = tested on: SR leukemia
UO-31 renal = tested on: UO-31 renal
COLO 205 colon = tested on: COLO 205 colon
RXF 393 renal = tested on: RXF 393 renal
A498 renal = tested on: A498 renal
NCI-H226 lung = tested on: NCI-H226 lung
HT29 colon = tested on: HT29 colon
K-562 leukemia = tested on: K-562 leukemia
UACC-62 melanoma = tested on: UACC-62 melanoma
UACC-257 melanoma = tested on: UACC-257 melanoma
NCI-H460 lung = tested on: NCI-H460 lung
SF-295 CNS = tested on: SF-295 CNS

Cn1cc(C2=C(c3cccnc3)C(=O)NC2=O)c2ccccc21
GI50 (OVCAR-5 ovarian): > 25 µM | TGI (OVCAR-5 ovarian): > 25 µM | GI50 (MALME-3M melanoma): > 25 µM | TGI (MALME-3M melanoma): > 25 µM | GI50 (SK-MEL-28 melanoma): > 25 µM | TGI (SK-MEL-28 melanoma): > 25 µM | GI50 (U251 CNS): 18.8 µM | TGI (U251 CNS): > 25 µM | GI50 (MDA-MB-231 breast): > 23.8 µM | TGI (MDA-MB-231 breast): > 25 µM | GI50 (MDA-MB-435): > 25 µM | TGI (MDA-MB-435): > 25 µM | GI50 (TK-10 renal): > 25 µM | TGI (TK-10 renal): > 25 µM | GI50 (786-0 renal): > 25 µM | TGI (786-0 renal): > 25 µM | GI50 (SF-539 CNS): 11.4 µM | TGI (SF-539 CNS): > 25 µM | GI50 (SK-MEL-2 melanoma): > 13 µM | TGI (SK-MEL-2 melanoma): 25 µM | GI50 (RPMI-8226 leukemia): > 25 µM | TGI (RPMI-8226 leukemia): > 25 µM | GI50 (IGROV1 ovarian): 24.3 µM | TGI (IGROV1 ovarian): > 25 µM | GI50 (SNB-75 CNS): 0.882 µM | TGI (SNB-75 CNS): > 25 µM | GI50 (SK-MEL-5 melanoma): > 12 µM | TGI (SK-MEL-5 melanoma): > 22.5 µM | GI50 (HL-60(TB) leukemia): > 25 µM | TGI (HL-60(TB) leukemia): > 25 µM | GI50 (LOX IMVI melanoma): > 20.9 µM | TGI (LOX IMVI melanoma): > 25 µM | GI50 (HCC-2998 colon): > 25 µM | TGI (HCC-2998 colon): > 25 µM | GI50 (T-47D breast): 14.6 µM | TGI (T-47D breast): > 25 µM | GI50 (KM12 colon): > 20.6 µM | TGI (KM12 colon): > 25 µM | GI50 (HOP-62 NSCLC): > 21.9 µM | TGI (HOP-62 NSCLC): > 25 µM | GI50 (OVCAR-4 ovarian): > 22.2 µM | TGI (OVCAR-4 ovarian): > 25 µM | GI50 (MOLT-4 leukemia): > 21.6 µM | TGI (MOLT-4 leukemia): > 25 µM | GI50 (OVCAR-3 ovarian): 15 µM | TGI (OVCAR-3 ovarian): > 25 µM | GI50 (DU-145 prostate): > 25 µM | TGI (DU-145 prostate): > 25 µM | GI50 (SNB-19 CNS): > 25 µM | TGI (SNB-19 CNS): > 25 µM | GI50 (NCI-H522 lung): > 25 µM | TGI (NCI-H522 lung): > 25 µM | GI50 (M14 melanoma): > 25 µM | TGI (M14 melanoma): > 25 µM | GI50 (HS 578T breast): 8.14 µM | TGI (HS 578T breast): > 25 µM | GI50 (BT-549 breast): > 25 µM | TGI (BT-549 breast): > 25 µM | GI50 (PC-3 prostate): 17.1 µM | TGI (PC-3 prostate): > 25 µM | GI50 (A549 NSCLC): > 25 µM | TGI (A549 NSCLC): > 25 µM | GI50 (HCT-15 colon): > 25 µM | TGI (HCT-15 colon): > 25 µM | GI50 (SK-OV-3 ovarian): > 22.9 µM | TGI (SK-OV-3 ovarian): > 25 µM | GI50 (OVCAR-8 ovarian): > 25 µM | TGI (OVCAR-8 ovarian): > 25 µM | GI50 (MCF7 breast): 8.45 µM | TGI (MCF7 breast): > 25 µM | GI50 (SN12C renal): > 25 µM | TGI (SN12C renal): > 25 µM | GI50 (SF-268 CNS): > 25 µM | TGI (SF-268 CNS): > 25 µM | GI50 (HCT-116 colon): 15 µM | TGI (HCT-116 colon): > 25 µM | GI50 (NCI-H23 lung): > 25 µM | TGI (NCI-H23 lung): > 25 µM | GI50 (SW-620 colon): > 25 µM | TGI (SW-620 colon): > 25 µM | GI50 (CAKI-1 renal): > 17.4 µM | TGI (CAKI-1 renal): > 25 µM | GI50 (ACHN renal): 14.1 µM | TGI (ACHN renal): > 25 µM | GI50 (NCI/ADR-RES ovarian): > 25 µM | TGI (NCI/ADR-RES ovarian): > 25 µM | GI50 (CCRF-CEM leukemia): 10.5 µM | TGI (CCRF-CEM leukemia): > 25 µM | GI50 (SR leukemia): 15.5 µM | TGI (SR leukemia): > 25 µM | GI50 (UO-31 renal): > 25 µM | TGI (UO-31 renal): > 25 µM | GI50 (COLO 205 colon): > 18.3 µM | TGI (COLO 205 colon): > 25 µM | GI50 (RXF 393 renal): 5.63 µM | TGI (RXF 393 renal): > 17.9 µM | GI50 (A498 renal): 9.03 µM | TGI (A498 renal): > 22.9 µM | GI50 (NCI-H226 lung): 8.15 µM | TGI (NCI-H226 lung): > 19.2 µM | GI50 (HT29 colon): > 25 µM | TGI (HT29 colon): > 25 µM | GI50 (K-562 leukemia): > 25 µM | TGI (K-562 leukemia): > 25 µM | GI50 (UACC-62 melanoma): > 25 µM | TGI (UACC-62 melanoma): > 25 µM | GI50 (UACC-257 melanoma): > 25 µM | TGI (UACC-257 melanoma): > 25 µM | GI50 (NCI-H460 lung): > 23.1 µM | TGI (NCI-H460 lung): > 25 µM | GI50 (SF-295 CNS): 8.13 µM | TGI (SF-295 CNS): > 25 µM
